Converted amounts (≈) assume the structure as drawn. Like-named read-outs stand apart in the source and are kept apart here.
Legend:
[1] = test system: vancomycin-sensitive Staphylococcus aureus Newman strain; experiment: In vitro antibacterial activity assay (MIC, CLSI dilution method); format: cell-based; conditions: 16 h, S. aureus Newman, 37° C.; for MIC: Staphylococcus aureus
[2] = test system: vancomycin-middle resistant Staphylococcus aureus Mu50 strain; experiment: as above; format: cell-based; conditions: 16 h; for MIC: Staphylococcus aureus, read-out: MIC Mu50

MIC ([1]; NEWMAN) [µg/mL] | MIC ([2]; S. aureus Mu50, 37° C.) [µg/mL] | SMILES | further results
1 (≈ 0.535 µM) | 2 (≈ 1.07 µM) | CCCCCCCCCCNCCNC1(C)C[C@H](O[C@H]2C(Oc3c4cc5cc3Oc3ccc(cc3Cl)[C@@H](O)[C@@H](NC(=O)[C@@H](CC(C)C)NC)C(=O)N[C@@H](CC(N)=O)C(=O)N[C@H]5C(=O)N[C@H]3C(=O)N[C@H](C(=O)N[C@H](C(=O)O)c5cc(O)c(CNCCOC6OC(CO)[C@@H](O)C(O)C6O)c(O)c5-c5cc3ccc5O)[C@H](O)c3ccc(c(Cl)c3)O4)O[C@H](CO)C(O)C2O)OC(C)[C@H]1O (some centres unmarked) [Van001] | –
0.5 (≈ 0.268 µM) | 2 (≈ 1.07 µM) | CCCCCCCCCCNCCNC1(C)C[C@H](O[C@H]2C(Oc3c4cc5cc3Oc3ccc(cc3Cl)[C@@H](O)[C@@H](NC(=O)[C@@H](CC(C)C)NC)C(=O)N[C@@H](CC(N)=O)C(=O)N[C@H]5C(=O)N[C@H]3C(=O)N[C@H](C(=O)N[C@H](C(=O)O)c5cc(O)c(CNCCO[C@@H]6OC(CO)[C@H](O)C(O)C6O)c(O)c5-c5cc3ccc5O)[C@H](O)c3ccc(c(Cl)c3)O4)O[C@H](CO)C(O)C2O)OC(C)[C@H]1O (some centres unmarked) [Van002] | –
4 (≈ 2.1 µM) | 16 (≈ 8.38 µM) | CCCCCCCCCCNCCNC1(C)C[C@H](O[C@H]2C(Oc3c4cc5cc3Oc3ccc(cc3Cl)[C@@H](O)[C@@H](NC(=O)[C@@H](CC(C)C)NC)C(=O)N[C@@H](CC(N)=O)C(=O)N[C@H]5C(=O)N[C@H]3C(=O)N[C@H](C(=O)N[C@H](C(=O)O)c5cc(O)c(CNCCO[C@@H]6OC(CO)[C@@H](O)C(O)C6NC(C)=O)c(O)c5-c5cc3ccc5O)[C@H](O)c3ccc(c(Cl)c3)O4)O[C@H](CO)C(O)C2O)OC(C)[C@H]1O (some centres unmarked) [Van003] | –
1 (≈ 0.535 µM) | 4 (≈ 2.14 µM) | CCCCCCCCCCNCCNC1(C)C[C@H](O[C@H]2C(Oc3c4cc5cc3Oc3ccc(cc3Cl)[C@@H](O)[C@@H](NC(=O)[C@@H](CC(C)C)NC)C(=O)N[C@@H](CC(N)=O)C(=O)N[C@H]5C(=O)N[C@H]3C(=O)N[C@H](C(=O)N[C@H](C(=O)O)c5cc(O)c(CNCCO[C@@H]6OC(CO)[C@@H](O)C(O)C6O)c(O)c5-c5cc3ccc5O)[C@H](O)c3ccc(c(Cl)c3)O4)O[C@H](CO)C(O)C2O)OC(C)[C@H]1O (some centres unmarked) [Van004] | –
8 (≈ 4.39 µM) | – | CCCCCCCCCCNCCNC1(C)C[C@H](O[C@@H]2C(O)C(O)[C@@H](CO)O[C@H]2Oc2c3cc4cc2Oc2ccc(cc2Cl)[C@@H](O)[C@@H](NC(=O)[C@@H](CC(C)C)NC)C(=O)N[C@@H](CC(N)=O)C(=O)N[C@H]4C(=O)N[C@@H]2C(=O)N[C@H](C(=O)N[C@H](C(=O)O)c4cc(O)c(CNC5C(O)OC(CO)[C@@H](O)[C@@H]5O)c(O)c4-c4cc2ccc4O)[C@H](O)c2ccc(c(Cl)c2)O3)O[C@@H](C)[C@H]1O (some centres unmarked) [Van006] | MIC Mu50 ([2]; S. aureus Mu50, 37° C.): 32 µg/mL (≈ 17.5 µM)
≤ 0.0625 | 0.25 (≈ 0.137 µM) | CCCCCCCCCCNCCNC1(C)C[C@H](O[C@@H]2C(O)C(O)[C@@H](CO)O[C@H]2Oc2c3cc4cc2Oc2ccc(cc2Cl)[C@@H](O)[C@@H](NC(=O)[C@@H](CC(C)C)NC)C(=O)N[C@@H](CC(N)=O)C(=O)N[C@H]4C(=O)N[C@@H]2C(=O)N[C@H](C(=O)N[C@H](C(=O)O)c4cc(O)c(CNC5C(O)OC(CO)[C@H](O)[C@@H]5O)c(O)c4-c4cc2ccc4O)[C@H](O)c2ccc(c(Cl)c2)O3)O[C@@H](C)[C@H]1O (some centres unmarked) [Van008] | –

Second part, the compound before the results:

SMILES | MIC ([1]; NEWMAN) [µg/mL] | MIC ([2]; S. aureus Mu50, 37° C.) [µg/mL] | further results
CCCCCCCCCCNCCNC1(C)C[C@H](O[C@@H]2C(O)C(O)[C@@H](CO)O[C@H]2Oc2c3cc4cc2Oc2ccc(cc2Cl)[C@@H](O)[C@@H](NC(=O)[C@@H](CC(C)C)NC)C(=O)N[C@@H](CC(N)=O)C(=O)N[C@H]4C(=O)N[C@@H]2C(=O)N[C@H](C(=O)N[C@H](C(=O)O)c4cc(O)c(CNCCO)c(O)c4-c4cc2ccc4O)[C@H](O)c2ccc(c(Cl)c2)O3)O[C@@H](C)[C@H]1O (some centres unmarked) [Van005] | 1 (≈ 0.586 µM) | 4 (≈ 2.35 µM) | –
CCCCCCCCCCNCCNC1(C)C[C@H](O[C@@H]2C(O)C(O)[C@@H](CO)O[C@H]2Oc2c3cc4cc2Oc2ccc(cc2Cl)[C@@H](O)[C@@H](NC(=O)[C@@H](CC(C)C)NC)C(=O)N[C@@H](CC(N)=O)C(=O)N[C@H]4C(=O)N[C@@H]2C(=O)N[C@H](C(=O)N[C@H](C(=O)O)c4cc(O)c(CNC5C(O)OC(CO)[C@@H](O)[C@@H]5O)c(O)c4-c4cc2ccc4O)[C@H](O)c2ccc(c(Cl)c2)O3)O[C@@H](C)[C@H]1O (some centres unmarked) [Van007] | – | – | MIC Newman [1]: 4 µg/mL (≈ 2.19 µM); MIC Mu50 ([2]; S. aureus Mu50, 37° C.): 8 µg/mL (≈ 4.39 µM)
CCCCCCCCCCNCCNC1(C)C[C@H](O[C@H]2C(Oc3c4cc5cc3Oc3ccc(cc3Cl)[C@@H](O)[C@@H](NC(=O)[C@@H](CC(C)C)NC)C(=O)N[C@@H](CC(N)=O)C(=O)N[C@H]5C(=O)N[C@H]3C(=O)N[C@H](C(=O)N[C@H](C(=O)O)c5cc(O)c(CNCCCNC(=O)[C@H](O)[C@@H](O)[C@H](O)[C@H](O)CO)c(O)c5-c5cc3ccc5O)[C@H](O)c3ccc(c(Cl)c3)O4)O[C@H](CO)C(O)C2O)OC(C)[C@H]1O (some centres unmarked) [Van009] | 0.5 (≈ 0.264 µM) | 1 (≈ 0.527 µM) | –
CCCCCCCCCCNCCNC1(C)C[C@H](O[C@H]2C(Oc3c4cc5cc3Oc3ccc(cc3Cl)[C@@H](O)[C@@H](NC(=O)[C@@H](CC(C)C)NC)C(=O)N[C@@H](CC(N)=O)C(=O)N[C@H]5C(=O)N[C@H]3C(=O)N[C@H](C(=O)N[C@H](C(=O)O)c5cc(O)c(CNCCCNC(=O)[C@H](O)[C@@H](O)[C@H](O[C@@H]6OC(CO)[C@H](O)C(O)C6O)[C@H](O)CO)c(O)c5-c5cc3ccc5O)[C@H](O)c3ccc(c(Cl)c3)O4)O[C@H](CO)C(O)C2O)OC(C)[C@H]1O (some centres unmarked) [Van010] | 0.25 (≈ 0.121 µM) | 1 (≈ 0.486 µM) | –
CN[C@H](CC(C)C)C(=O)N[C@H]1C(=O)N[C@@H](CC(N)=O)C(=O)N[C@H]2C(=O)N[C@H]3C(=O)N[C@H](C(=O)N[C@H](C(=O)O)c4cc(O)c(CNCCO[C@@H]5OC(CO)[C@H](O)C(O)C5O)c(O)c4-c4cc3ccc4O)[C@H](O)c3ccc(c(Cl)c3)Oc3cc2cc(c3OC2O[C@H](CO)C(O)C(O)[C@H]2O[C@@H]2CC(C)[C@@H](O)C(C)(NCc3ccc(-c4ccc(Cl)cc4)cc3)C2)Oc2ccc(cc2Cl)[C@H]1O (some centres unmarked) [Van011] | ≤ 0.0625 | 1 (≈ 0.531 µM) | –
CN[C@H](CC(C)C)C(=O)N[C@H]1C(=O)N[C@@H](CC(N)=O)C(=O)N[C@H]2C(=O)N[C@H]3C(=O)N[C@H](C(=O)N[C@H](C(=O)O)c4cc(O)c(CNCCO[C@H]5OC(CO)[C@@H](O)C(O)C5O)c(O)c4-c4cc3ccc4O)[C@H](O)c3ccc(c(Cl)c3)Oc3cc2cc(c3OC2O[C@H](CO)C(O)C(O)[C@H]2O[C@@H]2CC(C)[C@@H](O)C(C)(NCc3ccc(-c4ccc(Cl)cc4)cc3)C2)Oc2ccc(cc2Cl)[C@H]1O (some centres unmarked) [Van013] | – | – | MIC [1]: 2 µg/mL (≈ 1.06 µM); MIC [2]: 4 µg/mL (≈ 2.12 µM)
CN[C@H](CC(C)C)C(=O)N[C@H]1C(=O)N[C@@H](CC(N)=O)C(=O)N[C@H]2C(=O)N[C@H]3C(=O)N[C@H](C(=O)N[C@H](C(=O)O)c4cc(O)c(CNCCCNC(=O)[C@H](O)[C@@H](O)[C@H](O)[C@H](O)CO)c(O)c4-c4cc3ccc4O)[C@H](O)c3ccc(c(Cl)c3)Oc3cc2cc(c3OC2O[C@H](CO)C(O)C(O)[C@H]2O[C@@H]2CC(C)[C@@H](O)C(C)(NCc3ccc(-c4ccc(Cl)cc4)cc3)C2)Oc2ccc(cc2Cl)[C@H]1O (some centres unmarked) [Van014] | – | – | MIC [1]: 0.25 µg/mL (≈ 0.131 µM); MIC [2]: 0.125 µg/mL (≈ 0.0654 µM)
CN[C@H](CC(C)C)C(=O)N[C@H]1C(=O)N[C@@H](CC(N)=O)C(=O)N[C@H]2C(=O)N[C@@H]3C(=O)N[C@H](C(=O)N[C@H](C(=O)O)c4cc(O)c(CNCCCNC(=O)[C@H](O)[C@@H](O)[C@H](O[C@@H]5OC(CO)[C@H](O)C(O)[C@@H]5O)[C@H](O)CO)c(O)c4-c4cc3ccc4O)[C@H](O)c3ccc(c(Cl)c3)Oc3cc2cc(c3OC2O[C@H](CO)C(O)C(O)[C@H]2O[C@H]2CC(C)(NCc3ccc(-c4ccc(Cl)cc4)cc3)[C@H](O)C(C)O2)Oc2ccc(cc2Cl)[C@H]1O (some centres unmarked) [Van015] | – | – | MIC [1]: 0.25 µg/mL (≈ 0.12 µM); MIC [2]: 0.5 µg/mL (≈ 0.241 µM)
CN[C@H](CC(C)C)C(=O)N[C@H]1C(=O)N[C@@H](CC(N)=O)C(=O)N[C@H]2C(=O)N[C@H]3C(=O)N[C@H](C(=O)N[C@H](C(=O)O)c4cc(O)c(CNCCCNC(=O)[C@H](O)[C@@H](O)[C@H](O)[C@H](O)CO)c(O)c4-c4cc3ccc4O)[C@H](O)c3ccc(c(Cl)c3)Oc3cc2cc(c3OC2O[C@H](CO)C(O)C(O)[C@H]2O[C@@H]2CC(C)[C@@H](O)C(C)(NCc3ccc(OCc4cccc(-c5ccccc5)c4C)c(Cl)c3)C2)Oc2ccc(cc2Cl)[C@H]1O (some centres unmarked) [Van017] | 0.5 (≈ 0.246 µM) | 1 (≈ 0.492 µM) | –
CCc1ccc(CNC2(C)C[C@H](O[C@H]3C(Oc4c5cc6cc4Oc4ccc(cc4Cl)[C@@H](O)[C@@H](NC(=O)[C@@H](CC(C)C)NC)C(=O)N[C@@H](CC(N)=O)C(=O)N[C@H]6C(=O)N[C@H]4C(=O)N[C@H](C(=O)N[C@H](C(=O)O)c6cc(O)c(CNCCCNC(=O)[C@H](O)[C@@H](O)[C@H](O)[C@H](O)CO)c(O)c6-c6cc4ccc6O)[C@H](O)c4ccc(c(Cl)c4)O5)O[C@H](CO)C(O)C3O)CC(C)[C@H]2O)cc1 (some centres unmarked) [Van018] | 4 (≈ 2.19 µM) | 8 (≈ 4.37 µM) | –
CCCCCCCCCNC1(C)C[C@H](O[C@H]2C(Oc3c4cc5cc3Oc3ccc(cc3Cl)[C@@H](O)[C@@H](NC(=O)[C@@H](CC(C)C)NC)C(=O)N[C@@H](CC(N)=O)C(=O)N[C@H]5C(=O)N[C@H]3C(=O)N[C@H](C(=O)N[C@H](C(=O)O)c5cc(O)c(CNCCCNC(=O)[C@H](O)[C@@H](O)[C@H](O)[C@H](O)CO)c(O)c5-c5cc3ccc5O)[C@H](O)c3ccc(c(Cl)c3)O4)O[C@H](CO)C(O)C2O)CC(C)[C@H]1O (some centres unmarked) [Van019] | 0.5 (≈ 0.272 µM) | 2 (≈ 1.09 µM) | –
CN[C@H](CC(C)C)C(=O)N[C@H]1C(=O)N[C@@H](CC(N)=O)C(=O)N[C@H]2C(=O)N[C@@H]3C(=O)N[C@H](C(=O)NC(C(=O)NCCCN(C)C)c4cc(O)cc(O)c4-c4cc3ccc4O)[C@H](O)c3ccc(c(Cl)c3)Oc3cc2cc(c3OC2O[C@H](CO)C(O)C(O)[C@H]2O[C@H]2CC(C)(NCc3ccc(-c4ccc(Cl)cc4)cc3)[C@H](O)C(C)O2)Oc2ccc(cc2Cl)[C@H]1O (some centres unmarked) [Van020] | – | – | MIC [1]: 1 µg/mL (≈ 0.577 µM); MIC [2]: 1 µg/mL (≈ 0.577 µM)
CN[C@H](CC(C)C)C(=O)N[C@H]1C(=O)N[C@@H](CC(N)=O)C(=O)N[C@H]2C(=O)N[C@H]3C(=O)N[C@H](C(=O)N[C@H](C(=O)NCCCN(C)C)c4cc(O)c(CNCCOC5OC(CO)[C@@H](O)C(O)C5O)c(O)c4-c4cc3ccc4O)[C@H](O)c3ccc(c(Cl)c3)Oc3cc2cc(c3OC2O[C@H](CO)C(O)C(O)[C@H]2O[C@H]2CC(C)(NCc3ccc(-c4ccc(Cl)cc4)cc3)[C@H](O)C(C)O2)Oc2ccc(cc2Cl)[C@H]1O (some centres unmarked) [Van021] | 2 (≈ 1.02 µM) | 4 (≈ 2.03 µM) | –
